Data: BindingDB's records for patent US20240287079 (Japan Tobacco, 2024)

The compounds below were run against NACHT, LRR and PYD domains-containing protein 3 (Homo sapiens, UniProt Q96P20) (assay: Evaluation of NLRP3 Inflammasome Inhibitory Activity Assay).
NACHT, LRR and PYD domains-containing protein 3, sequence (Q96P20 whole entry, the tested form may be a part): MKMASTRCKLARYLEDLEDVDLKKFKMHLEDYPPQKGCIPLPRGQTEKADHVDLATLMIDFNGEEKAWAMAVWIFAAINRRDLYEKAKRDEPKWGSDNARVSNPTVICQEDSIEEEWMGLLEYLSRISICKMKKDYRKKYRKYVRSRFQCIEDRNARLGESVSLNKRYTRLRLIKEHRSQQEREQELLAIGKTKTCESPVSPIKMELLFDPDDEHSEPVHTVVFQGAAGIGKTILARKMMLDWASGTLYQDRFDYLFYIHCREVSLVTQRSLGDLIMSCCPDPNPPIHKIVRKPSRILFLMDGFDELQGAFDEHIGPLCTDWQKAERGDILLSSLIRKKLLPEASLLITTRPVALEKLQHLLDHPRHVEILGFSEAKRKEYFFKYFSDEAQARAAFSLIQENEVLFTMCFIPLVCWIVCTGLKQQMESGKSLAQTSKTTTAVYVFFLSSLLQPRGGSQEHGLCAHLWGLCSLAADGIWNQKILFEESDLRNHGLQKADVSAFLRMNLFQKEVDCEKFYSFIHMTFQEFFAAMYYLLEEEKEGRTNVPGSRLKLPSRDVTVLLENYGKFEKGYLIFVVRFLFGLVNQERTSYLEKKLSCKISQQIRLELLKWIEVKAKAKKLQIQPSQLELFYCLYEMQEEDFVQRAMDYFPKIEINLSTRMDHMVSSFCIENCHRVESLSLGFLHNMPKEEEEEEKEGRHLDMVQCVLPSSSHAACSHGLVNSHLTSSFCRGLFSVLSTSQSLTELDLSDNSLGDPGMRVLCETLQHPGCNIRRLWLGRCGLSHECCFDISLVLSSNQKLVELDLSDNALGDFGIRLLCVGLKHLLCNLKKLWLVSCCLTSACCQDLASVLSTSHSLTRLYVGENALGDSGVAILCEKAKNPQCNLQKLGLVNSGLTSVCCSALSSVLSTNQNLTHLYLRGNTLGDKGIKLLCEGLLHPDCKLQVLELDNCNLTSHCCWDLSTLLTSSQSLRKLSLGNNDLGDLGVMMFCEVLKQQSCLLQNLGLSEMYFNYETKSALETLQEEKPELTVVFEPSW
Description: The NLRP3 inflammasome inhibitory activity of test compounds were evaluated on the basis of the inhibitory activity of the IL-1β production in THP1-Null cells (Product Number: thp-null, InvivoGen). […] The supernatant of the culture was removed, and thereto was added media for assay (25 μL/well) containing 1 μg/mL Lipopolysaccharides (Product Number: L2654, Sigma-Aldrich (registered trademark)). […] The supernatant of the culture was removed. […] A solution containing a test compound (20 μL/well) was added to test compound-setting wells. […] The supernatant of the culture was cryonically stored (set at −20° C.) until measurement of IL-1β.
For `COC1(C)CN(c2nc3nn(-c4c(C)cc(Br)cc4C)cc3c(=O)[nH]2)C1` [US20240287079, Example 203], the IC50 was 0.027 µM.
`Cc1cc(Br)cc(C)c1-n1cc2c(=O)[nH]c(N3CC4(COC4)C3)nc2n1` [US20240287079, Example 204] showed an IC50 of 0.028 µM.
`COC1(C)CN(c2nc3nn(-c4c(C)cc(Br)cc4C)cc3c(=O)n2C)C1` [US20240287079, Example 212] showed an IC50 of 0.13 µM.
`Cc1cc(Br)cc(C)c1-n1cc2c(=O)[nH]c(N3CCOC[C@H]3C)nc2n1` [US20240287079, Example 213] gave an IC50 of 0.0068 µM.
`Cc1cc(Br)cc(C)c1-n1cc2c(=O)[nH]c(N3CCO[C@@H](C)C3)nc2n1` [US20240287079, Example 214] showed an IC50 of 0.019 µM.
Compound `Cc1cc(Br)cc(C)c1-n1cc2c(=O)[nH]c(N3CCO[C@H](C)C3)nc2n1` [US20240287079, Example 215] has an IC50 of 0.017 µM.
`COC1COCCN(c2nc3nn(-c4c(C)cc(Br)cc4C)cc3c(=O)[nH]2)C1` (stereo unspecified) [US20240287079, Example 216] showed an IC50 of 0.012 µM.
For `Cc1cc(Br)cc(C)c1-n1cc2c(=O)[nH]c(N3CCOC[C@@H]3C)nc2n1` [US20240287079, Example 223], the IC50 was 0.16 µM.
`Cc1cc(Br)cc(C)c1-n1cc2c(=O)[nH]c(N3C[C@@H](C)O[C@@H](C)C3)nc2n1` [US20240287079, Example 224] gave an IC50 of 0.08 µM.
Work on `Cc1cc(Br)cc(C)c1-n1cc2c(=O)[nH]c(N3CCOC4(CC4)C3)nc2n1` [US20240287079, Example 225] yielded an IC50 of 0.019 µM.
For `Cc1cc(Br)cc(C)c1-n1cc2c(=O)[nH]c(N3C4CCC3CC(F)(F)C4)nc2n1` [US20240287079, Example 238], the IC50 was 0.11 µM.
`Cc1cc(Br)cc(C)c1-n1cc2c(=O)[nH]c(N3CC4CCC(C3)C4(F)F)nc2n1` [US20240287079, Example 239] was tested, and the IC50 was 0.011 µM.
`Cc1cc(Br)cc(C)c1-n1cc2c(=O)[nH]c(N3CCC4CC43)nc2n1` (stereo unspecified) [US20240287079, Example 240] gave an IC50 of 0.0071 µM.
For `CNc1nc2nn(-c3c(C)cc(Br)cc3C)cc2c(=O)n1C` [US20240287079, Example 247], the IC50 was 0.26 µM.
For `CCC1COCCN1c1nc2nn(-c3c(C)cc(Br)cc3C)cc2c(=O)[nH]1` (stereo unspecified) [US20240287079, Example 248], the IC50 was 0.03 µM.
Compound `Cc1cc(Br)cc(C)c1-n1cc2c(=O)[nH]c(N3CCOC4(COC4)C3)nc2n1` [US20240287079, Example 264] has an IC50 of 0.032 µM.
